The results in this text go back to US6887896B1, “7-[(7-Alkoxy)-chrom-3-en-6-yl]-heptatrienoic acid and 7-[(3-alkoxy)-5,6-dihydronaphthalen-2-yl]-heptatrienoic acid derivatives having serum glucose reducing activity” (Allergan, Inc., priority 2003, dated 2005).

As a reminder, the Ki is a measure of affinity in units of concentration, obtained from inhibition or displacement. The term EC50 denotes the concentration that produces a half-maximal response. By Kd is commonly meant the concentration at which binding is half-saturated.

Test [1] deals with T1, RARβ (Homo sapiens, UniProt P10826).
T1 sequence (P10826 1-455): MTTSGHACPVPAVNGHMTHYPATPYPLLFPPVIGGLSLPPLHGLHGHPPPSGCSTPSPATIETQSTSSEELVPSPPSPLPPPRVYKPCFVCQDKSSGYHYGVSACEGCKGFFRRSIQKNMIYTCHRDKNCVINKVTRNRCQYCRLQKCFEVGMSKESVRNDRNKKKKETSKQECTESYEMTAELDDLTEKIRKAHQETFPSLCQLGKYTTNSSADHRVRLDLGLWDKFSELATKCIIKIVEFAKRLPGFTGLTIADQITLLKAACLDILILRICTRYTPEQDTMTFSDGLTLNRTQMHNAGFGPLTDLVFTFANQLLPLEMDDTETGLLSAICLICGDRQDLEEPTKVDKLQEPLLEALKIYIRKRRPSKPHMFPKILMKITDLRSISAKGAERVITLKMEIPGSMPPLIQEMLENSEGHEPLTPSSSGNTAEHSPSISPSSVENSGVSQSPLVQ
The test can be described thus: ligand binding assay, RARβ. The settings on record: for Ki: read-out: RAR Bind. Ki β. The procedure, abridged: (§1)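 Binding of compounds to several retinoid receptor subtypes was measured. Results are given as Ki values in nanomolar concentration, derived per Cheng et al.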

Test [2] deals with T2, RXRα (Homo sapiens, UniProt P19793).
T2 construct: expressed in transfected cells
T2 sequence (P19793 1-462): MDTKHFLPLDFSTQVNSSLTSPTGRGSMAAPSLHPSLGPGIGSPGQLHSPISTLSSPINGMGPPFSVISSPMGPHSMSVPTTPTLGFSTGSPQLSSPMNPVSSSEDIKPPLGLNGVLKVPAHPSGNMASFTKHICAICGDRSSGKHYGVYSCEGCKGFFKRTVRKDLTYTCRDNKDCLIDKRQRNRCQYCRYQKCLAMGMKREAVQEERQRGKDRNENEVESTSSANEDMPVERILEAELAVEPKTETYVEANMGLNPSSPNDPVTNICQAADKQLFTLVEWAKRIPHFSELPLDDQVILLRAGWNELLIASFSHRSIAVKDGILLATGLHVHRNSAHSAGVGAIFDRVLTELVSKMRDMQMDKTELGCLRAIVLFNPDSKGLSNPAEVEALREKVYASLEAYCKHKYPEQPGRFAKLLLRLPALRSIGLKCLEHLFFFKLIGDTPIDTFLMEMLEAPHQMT
The test can be described thus: holoreceptor transactivation assay, RXRα. Type of test: cell-based. The settings on record: for EC50: holoreceptor transactivation, read-out: RXR Trans. EC50 α; for Emax: percentage compared to the standard compound, read-out: RXR Trans. efficacy (number in parentheses) α. The procedure, abridged:
(§2)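 Agonist-like activity measured by transactivation: RXR subtypes in a holoreceptor assay, RAR subtypes in a chimeric receptor assay. Values are EC50 in nM. Efficacy is given as percentage of maximum relative to the standard (2E,4E,1′S,2′S)-3-methyl-5-[2′-methyl-2′-(5,5,8,8-tetramethyl-5,6,7,8-tetrahydro-naphthalen-2-yl)cyclopropyl]-penta-2,4-dienoic acid.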

The target in test [3] is T3, RXRβ (UniProt P28704).
T3 sequence (P28704 1-520): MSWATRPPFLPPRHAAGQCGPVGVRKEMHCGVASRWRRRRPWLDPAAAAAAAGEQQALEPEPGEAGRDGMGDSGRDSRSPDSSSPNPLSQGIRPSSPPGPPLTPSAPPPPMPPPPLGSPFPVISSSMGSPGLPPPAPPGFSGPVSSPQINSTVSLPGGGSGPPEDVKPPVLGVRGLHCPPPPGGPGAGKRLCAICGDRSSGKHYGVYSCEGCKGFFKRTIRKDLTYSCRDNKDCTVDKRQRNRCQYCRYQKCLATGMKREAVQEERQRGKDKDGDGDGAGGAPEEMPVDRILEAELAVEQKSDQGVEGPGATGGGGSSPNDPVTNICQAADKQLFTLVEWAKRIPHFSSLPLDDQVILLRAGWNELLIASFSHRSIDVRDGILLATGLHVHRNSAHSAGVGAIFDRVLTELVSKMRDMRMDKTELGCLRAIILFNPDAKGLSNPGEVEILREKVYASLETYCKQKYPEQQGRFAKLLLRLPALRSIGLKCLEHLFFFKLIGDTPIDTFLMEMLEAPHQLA
The test can be described thus: holoreceptor transactivation assay, RXRβ. The conditions noted are these: for EC50: holoreceptor transactivation, read-out: RXR Trans. EC50 β; for RXR Trans. efficacy (number in parentheses) β: percentage compared to the standard compound. In kind it is cell-based. In outline: as §2

For test [4], the target named is T2, RXRα. The test can be described thus: ligand binding assay, RXRα. The conditions noted are these: for Ki: read-out: RXR Bind Ki α. In outline: as §1

As to `COc1c(\C(C)=C/C=C/C(C)=C/C(=O)O)cc2c(c1Cl)OC(C)(C)C=C2C(C)C` [Compound 49, 7-(8-Chloro-4-isopropyl-7-methoxy-2,2-dimethyl-2H-chromen-6-y)-3-methyl-octa-2E,4E,6Z-trienoic acid], the Ki in test [1] was 4100 nM; in test [4], 2 nM. For the same molecule, the EC50 stood at 0.1 nM in test [2] and 0.9 nM in test [3]. Moreover, the Emax in test [2] is 93%. Further, in test [3], the “RXR Trans. efficacy (number in parentheses) β” value (“RXR Trans. efficacy” below) stood at 98%.
Consider `COc1c(\C(C)=C(F)/C=C/C(C)=C/C(=O)O)cc2c(c1Cl)OC(C)(C)C=C2C(C)C` [Compound 170, 7-(8-Chloro-4-isopropyl-7-methoxy-2,2-dimethyl-2H-chromen-6-yl)-6-fluoro-3-methyl-octa-2E,4E,6E-trienoic acid], for which the Ki in test [1] turned out to be 2300 nM. Besides, in test [2], the EC50 was 0.8 nM and the Emax was 86%. Also, in test [3], the EC50 amounted to 0.8 nM and the “RXR Trans. efficacy” value came to 88%. Further, the Ki in test [4] turned out to be 2 nM.
As to `CC/C(=C(F)/C=C/C(C)=C/C(=O)O)c1cc2c(cc1OC)OC(C)(C)C=C2C(C)(C)C` [Compound 131, 7-(4-tert-Butyl-7-methoxy-2,2-dimethyl-2H-chromen-6-yl)-6-fluoro-3-methyl-nona-2E,4E,6E-trienoic acid], in test [1], the Ki was 843 nM. Further, in test [2], the EC50 came out at 6 nM and the Emax was determined as 37%. In test [3], the EC50 came to 64 nM and the “RXR Trans. efficacy” value was found to be 47%. In addition, the Ki in test [4] worked out at 10 nM.
`CCC1=CC(C)(C)Oc2cc(OC)c(\C(C)=C/C=C/C(C)=C/C(=O)O)cc21` [Compound 42, 7-(4-Ethyl-7-methoxy-2,2-dimethyl-2H-chromen-6-yl)-3-methyl-octa-2E,4E,6Z-trienoic acid]: the inhibitory constant (Ki) is 9900 nM in test [1] and 49 nM in test [4]. In addition, the EC50 worked out at 6 nM in test [2] and 55 nM in test [3]. The Emax in test [2] came out at 99%. For the same molecule, the “RXR Trans. efficacy” value in test [3] was determined as 98%.
Consider `CC/C(=C(F)/C=C/C(C)=C/C(=O)O)c1cc2c(cc1OC)OC(C)(C)C=C2C` [Compound 129, 6-Fluoro-7-(7-methoxy-2,2,4-trimethyl-2H-chromen-6-yl)-3-methyl-nona-2E,4E,6E-trienoic acid], for which the Ki in test [1] is 490 nM. Further, in test [2], the EC50 worked out at 44 nM and the Emax worked out at 99%. Moreover, in test [3], the EC50 amounted to 843 nM and the “RXR Trans. efficacy” value is recorded as 151%. Also, the Ki in test [4] came out at 69 nM.
For `CC/C(=C(F)/C=C/C(C)=C/C(=O)O)c1cc2c(cc1OC)OC(C)(C)C=C2C(C)C` [Compound 130, 6-Fluoro-7-(4-isopropyl-7-methoxy-2,2-dimethyl-2H-chromen-6-yl)-3-methyl-nona-2E,4E,6E-trienoic acid], the Ki in test [1] was 547 nM. Further, in test [2], the EC50 was 0.5 nM and the Emax turned out to be 80%. Also, in test [3], the EC50 is 3.1 nM and the “RXR Trans. efficacy” value is 73%. Besides, the Ki in test [4] was 3 nM.
Consider `CCOc1c(\C(C)=C(F)/C=C/C(C)=C/C(=O)O)cc2c(c1Br)C(C)(C)CC=C2C(C)(C)C` [Compound A-174, (2E,4E,6E)-7-(4-Bromo-8-tert-butyl-3-ethoxy-5,5-dimethyl-5,6-dihydro-naphthalen-2-yl)-6-fluoro-3-methyl-octa-2,4,6-trienoic acid], for which, in test [1] (Table 9 (Formula F), read-out: RAR β Kd), the Kd is 517 nM. Besides, in test [2], the EC50 is 1 nM and the Emax worked out at 24%. Also, in test [3], the EC50 is 7 nM and the “RXR Trans. efficacy” value is reported as 25%. Besides, the Kd in test [4] (Table 9 (Formula F), read-out: RXR α Kd) was found to be 2 nM.
